These results are taken from patent US20150265703A1, “COMBINATION THERAPY OF AN AFUCOSYLATED CD20 ANTIBODY WITH A mTOR INHIBITOR” (ROCHE GLYCART AG, priority 2010, published 2015).

This assay has as its system SU-DHL-4 human lymphoma cells. Nature of the assay: Tumor growth inhibition study in vivo, SC SU-DHL-4 tumors in SCID beige mice. To be noted: for SU-DHL-4 tumors growth in comparison with tumors from vehicle-treated animals: 3 mg/kg, single agent; for T/C (%) values of the treatment groups compared to the vehicle group: day 46 after tumor cell injection, GA101 3 mg/kg IV Q7Dx4, Torisel 3 mg/kg IP Q3Dx10, SC SU-DHL-4 tumors, SCID beige mice. The protocol:
Test Agents Type II anti-CD20 antibody B-HH6-B-KV1 GE (=humanized B-Ly1, glycoengineered B-HH6-B-KV1=GA101; see WO 2005/044859 and WO 2007/031875) was provided from GlycArt, Schlieren, Switzerland. Antibody buffer included histidine, trehalose and polysorbate 20. Antibody solution was diluted appropriately in PBS from stock for prior injections. Temsirolimus (Torisel®, 25 mg/ml, Wyeth Pharmaceuticals) was supplied by Oncodesign and stored at +4° C. protected from light according to the supplier's instructions.
SU-DHL-4 human lymphoma cells (DSMZ NO.: ACC 495) were grown as a suspension at 37° C. in a humidified atmosphere (5% CO2, 95% air). The culture medium was RPMI 1640 containing 2 mM L-glutamine (Ref BE12-702F, Batch N° 8MB0056, Lonza, Verviers, Belgium) and supplemented with 10% fetal bovine serum (Ref 3302, Batch N^o P282005, Lonza). The cells were counted in a hemocytometer and their viability was assessed by 0.25% trypan blue exclusion.
Female CB17 SCID beige mice, 5-6 week-old and weighing 16-20 g, were obtained from Charles River (L'Arbresle, France).
Ten millions (10^7) SU-DHL-4 tumor cells in 100 μl of PBS with matrigel (50:50, BD Biosciences, France) were subcutaneously (SC) injected into the right flank of 52 female SCID beige mice.
All study data, including animal body weight measurements, tumor volume, clinical and mortality records, and drug treatment management were managed using Vivo Manager® software (Biosystemes, Dijon, France).
Isoflurane Forene (Minerve, Bondoufle, France) was used to anaesthetize the animals before SC inoculation of tumor cells, IV injection of compounds and sacrifice. Mortality, clinical signs and behaviour were recorded every day. Animal body weights and tumor volumes were monitored and recorded twice a week.
When the tumors reached a mean volume of 173±95 mm^3, 40 out of 52 tumor bearing […] mice were distributed in 4 groups of 10 mice. The treatment schedule was chosen as following: • Mice from group 1 received once weekly IV bolus injection of vehicle for 4 consecutive weeks (Q7Dx4). • Mice from group 2 received once weekly IV bolus injection of anti-CD20 antibody GA101 (B-HH6-B-KV1 GE) at 3 mg/kg/inj for 4 consecutive weeks (Q7Dx4). • Mice from group 3 received once daily IP injection of Torisel® at 3 mg/kg/inj with a 3-day interval between each dosing and a total of 10 injections (Q3Dx10). • Mice from group 4 received once weekly IV bolus injection of anti-CD20 antibody GA101 (B-HH6-B-KV1 GE) at 3 mg/kg/inj for 4 consecutive weeks (Q7Dx4) in combination with once daily IP injection of Torisel® at 3 mg/kg/inj with a 3-day interval between each dosing and a total of 10 injections (Q3Dx10)].
The antitumor efficacy of anti-CD20 antibody GA101 (B-HH6-B-KV1 GE) alone and in combination with Torisel® was examined. […]

For `CO[C@H]1C[C@@H]2CC[C@@H](C)[C@@](O)(O2)C(=O)C(=O)N2CCCC[C@H]2C(=O)O[C@H]([C@H](C)C[C@@H]2CC[C@@H](OC(=O)C(C)(CO)CO)[C@H](OC)C2)CC(=O)[C@H](C)/C=C(\C)[C@@H](O)[C@@H](OC)C(=O)[C@H](C)C[C@H](C)/C=C/C=C/C=C/1C` [Torisel, Temsirolimus], the “SU-DHL-4 tumors growth in comparison with tumors from vehicle-treated animals” value is given as “partially delayed” and the “T/C (%) values of the treatment groups compared to the vehicle group” value is recorded as 60%.
Taken in the same sequence, the figures for “GA101: Type II anti-CD20 antibody, humanized B-Ly1, glycoengineered B-HH6-B-KV1 (VH SEQ ID NO:7, VL SEQ ID NO:20), afucosylated IgG1” were “partially delayed” and 51%.
